Test [1] has as its target T1, α-glucosidase from baker’s yeast (Saccharomyces cerevisiae, UniProt P53341).
T1 construct: purchased Sigma G5003
In words: biochemical. It is filed as biochemical. As to conditions: for fold higher α-glucosidase inhibitory activity than 5a: compared with compound 5a; for fold higher α-glucosidase inhibitory activity than 3: compared with compound 3. As for the experimental part:
The commercially available α-glucosidase from baker’s yeast (Sigma, G5003) was selected as the target protein while using p-nitrophenyl-α-D-glucopyranoside (pNGP, Sigma, N1377) as the substrate. […] The enzyme and substrate were dissolved in potassium phosphate buffer (0.05 M, pH 6.8). The enzymatic reaction mixture that was composed of α-glucosidase (0.04 U, 20 μL), substrate (0.5 mM, 30 μL), test compounds (20 μL), and potassium phosphate buffer (130 μL) was incubated at 37 °C for 30 min. The enzymatic activity was detected by spectrophotometer at the wavelength of 405 nm. The results are the average of three independent experiments, each being performed in duplicate.

Test [2] addresses T2, DPP-4 (Homo sapiens, UniProt P27487).
T2 construct: purchased PROSPEC ENZ-375
In words: DPP-4 inhibition assay (glycyl proline p-nitroaniline substrate). As to conditions: average of three independent experiments, each in duplicate; 37 °C, 30 min. It is filed as biochemical. As for the experimental part: The enzyme and substrate were dissolved in Tris-HCl buffer (0.1 M, pH 8.0). The enzymatic reaction mixture that was composed of DPP-4 (0.01 U, 50 μL), substrate (2.2 mM, 50 μL), test compounds (10 μL), and Tris-HCl buffer (90 μL) was incubated at 37 °C for 30 min. […] The results are the average of three independent experiments, each being performed in duplicate.

The target of test [3] is T3, α-glucosidase (Saccharomyces cerevisiae, UniProt P53341).
T3 construct: purchased Sigma G5003
T3 sequence (P53341 whole entry): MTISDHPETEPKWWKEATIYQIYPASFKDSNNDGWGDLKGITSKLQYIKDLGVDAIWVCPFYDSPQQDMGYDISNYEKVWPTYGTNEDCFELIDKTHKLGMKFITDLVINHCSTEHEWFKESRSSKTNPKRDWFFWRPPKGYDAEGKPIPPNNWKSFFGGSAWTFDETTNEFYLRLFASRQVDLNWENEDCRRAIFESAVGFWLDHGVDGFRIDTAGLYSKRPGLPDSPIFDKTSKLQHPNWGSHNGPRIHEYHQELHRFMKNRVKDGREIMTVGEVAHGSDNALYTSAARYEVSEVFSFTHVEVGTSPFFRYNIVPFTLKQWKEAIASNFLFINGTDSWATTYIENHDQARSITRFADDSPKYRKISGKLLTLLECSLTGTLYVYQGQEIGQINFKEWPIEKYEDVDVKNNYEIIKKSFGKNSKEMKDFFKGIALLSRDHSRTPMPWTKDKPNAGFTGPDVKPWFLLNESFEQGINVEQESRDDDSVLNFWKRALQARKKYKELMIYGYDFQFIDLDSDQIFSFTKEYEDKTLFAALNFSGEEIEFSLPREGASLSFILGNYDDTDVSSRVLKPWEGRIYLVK
The test can be described thus: Kinetics of enzyme inhibition (velocity vs enzyme plots, Lineweaver-Burk). The conditions noted are these: for reversibility of α-glucosidase inhibition: plots of velocity versus enzyme concentration at different inhibitor concentrations. It is filed as biochemical, baker’s yeast. As for the experimental part:
The commercially available α-glucosidase from baker’s yeast (Sigma, G5003) was selected as the target protein while using p-nitrophenyl-α-D-glucopyranoside (pNGP, Sigma, N1377) as the substrate. The compounds and acarbose were dissolved in DMSO. The enzyme and substrate were dissolved in potassium phosphate buffer (0.05 M, pH 6.8). The enzymatic reaction mixture that was composed of α-glucosidase (0.04 U, 20 μL), substrate (0.5 mM, 30 μL), test compounds (20 μL), and potassium phosphate buffer (130 μL) was incubated at 37 °C for 30 min. The enzymatic activity was detected by spectrophotometer at the wavelength of 405 nm. The results are the average of three independent experiments, each being performed in duplicate.
The kinetics of enzyme inhibition was performed with the same assays detailed above, in the presence of different concentrations of compounds 4d and 5d, substrate, and enzyme, respectively. The inhibitory kinetics of 4d and 5d on α-glucosidase was analyzed using the Lineweaver-Burk plot of the substrate concentration and velocity.

In test [4] the test system is HepG2 cells. In words: Glucose consumption assay in HepG2 cells. The format is cell-based, human. As to conditions: 24 h. As for the experimental part:
Briefly, the HepG2 cells were cultured in Dulbecco’s-modified Eagle’s medium (DMEM) containing 25 mmol/L D-glucose, 10% heat-inactivated fetal bovine serum (FBS), 10 U/mL penicillin, and […] streptomycin at 37 °C, 5% CO2 atmosphere. The culture solution was replaced every other day and then passaged once for 2–3 d. The cells were seeded into 96-well plate with twenty-four wells left as blanks. After reaching 70–80% confluence, the cells were washed with PBS twice and the medium was replaced by DMEM containing 25 mmol/L D-glucose to hunger for 24 h. The cells were washed with PBS twice and the medium was replaced by RPMI-1640 containing 11.1 mmol/L glucose that was supplemented with 0.2% bovine serum albumin (BSA). To the medium was then added 1 mmol/L metformin or purified product at different concentrations, and DMSO was used as the blank control. The glucose concentration in the medium […] 24 h treatment. Glucose consumption = glucose concentrations of blank wells − glucose concentrations of plated wells. The sulforhodamine B (SRB) assay was used to adjust the glucose consumption values. The SRB assay is based on the measurement of cellular protein content. […] Bound SRB was solubilized with 150 μL Tris-base (10 mmol/L, pH 10.5) solution for OD determination at 546 nm while using a microplate reader.

Where [5] appears, read: average of three independent experiments, each in duplicate, 37 °C, 30 min, read-out: IC50 α-Glucosidase.

“Also recorded” adds a separate entry of the source. Like-named read-outs stand apart in the source and are kept apart here.

T1 sequence (P53341 whole entry): as above
T2 sequence (P27487 whole entry): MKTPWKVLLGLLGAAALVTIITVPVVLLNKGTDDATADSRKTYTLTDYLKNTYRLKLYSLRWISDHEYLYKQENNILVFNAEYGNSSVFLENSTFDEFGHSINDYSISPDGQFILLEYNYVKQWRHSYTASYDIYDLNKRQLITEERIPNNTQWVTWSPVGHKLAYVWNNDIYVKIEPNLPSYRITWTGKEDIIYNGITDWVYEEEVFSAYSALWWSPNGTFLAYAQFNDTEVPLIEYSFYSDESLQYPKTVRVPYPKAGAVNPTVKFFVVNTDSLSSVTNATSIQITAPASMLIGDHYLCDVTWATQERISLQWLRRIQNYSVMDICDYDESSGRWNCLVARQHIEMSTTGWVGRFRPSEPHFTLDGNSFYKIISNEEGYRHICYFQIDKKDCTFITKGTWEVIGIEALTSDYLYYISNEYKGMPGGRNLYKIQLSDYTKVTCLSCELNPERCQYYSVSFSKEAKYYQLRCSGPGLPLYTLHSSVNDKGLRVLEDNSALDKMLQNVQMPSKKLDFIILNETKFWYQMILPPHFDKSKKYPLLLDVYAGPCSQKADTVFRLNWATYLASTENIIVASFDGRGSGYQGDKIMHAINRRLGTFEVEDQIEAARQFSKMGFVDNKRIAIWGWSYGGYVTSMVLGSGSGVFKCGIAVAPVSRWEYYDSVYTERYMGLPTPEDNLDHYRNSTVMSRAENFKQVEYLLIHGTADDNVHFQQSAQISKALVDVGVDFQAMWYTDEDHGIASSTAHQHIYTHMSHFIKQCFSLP

As usually defined, the IC50 is the point on the concentration scale where inhibition reaches its midpoint. As for `CC(=O)c1c(O)c(Cc2c(O)c3c(c(C(C)=O)c2O)OC(C)(C)C=C3)c(O)c2c1OC(C)(C)C=C2` [Compound 9, 1,1’-(Methylenebis(5,7-dihydroxy-2,2-dimethyl-2H-chromene-6,8-diyl))bis (ethan-1-one)], the IC50 in test [1] (setting [5]) is 7110 ± 50 nM; in test [2], over 50 µM.

`CC1(C)C=Cc2c(O)cc(O)c(C(=O)/C=C/c3ccc(O)cc3)c2O1` [Compound 2, dehydrocyclodesmethylxanthohumol, reference compound]: the IC50 in test [1] (setting [5]) is 9740 ± 730 nM; in test [2] it was over 50 µM.

On to `CC1(C)C=Cc2c(O)c(Cc3c(O)c4c(c(C(=O)C=Cc5cccc(O)c5O)c3O)OC(C)(C)C=C4)c(O)c(C(=O)C=Cc3cccc(O)c3O)c2O1` (stereo in doubt) [Compound 5c, (2Z,2’Z)-1,1’-(Methylenebis(5,7-dihydroxy-2,2-dimethyl-2H-chromene-6,8-diyl))bis (3-(2,3-dihydroxyphenyl)prop-2-en-1-one)], for which the IC50 in test [1] was 1070 ± 60 nM; in test [2] it was over 50 µM.

As for `CC1(C)C=Cc2c(O)c(Cc3c(O)c4c(c(C(=O)C=Cc5ccc(O)cc5O)c3O)OC(C)(C)C=C4)c(O)c(C(=O)C=Cc3ccc(O)cc3O)c2O1` (stereo in doubt) [Compound 5b, (2Z,2’Z)-1,1’-(Methylenebis(5,7-dihydroxy-2,2-dimethyl-2H-chromene-6,8-diyl))bis (3-(2,4-dihydroxyphenyl)prop-2-en-1-one)], the 50% inhibitory concentration (IC50) in test [1] is 240 ± 20 nM; in test [2] it was over 50 µM. In addition, in test [1], the “fold higher α-glucosidase inhibitory activity than 5a” value is given as “two-fold”.

In the case of `COc1ccc(C=CC(=O)c2c(O)c(Cc3c(O)c4c(c(C(=O)C=Cc5ccc(OC)cc5)c3O)OC(C)(C)C=C4)c(O)c3c2OC(C)(C)C=C3)cc1` (stereo in doubt) [Compound 4a, (2Z,2’Z)-1,1’-(Methylenebis(5,7-dihydroxy-2,2-dimethyl-2H-chromene-6,8-diyl))bis (3-(4-methoxyphenyl)prop-2-en-1-one)], the IC50 in test [1] was 6410 ± 330 nM; in test [2], over 50 µM.

For `COc1c2c(c(C(=O)/C=C\c3ccccc3)c(O)c1Cc1c(O)c(C(=O)/C=C\c3ccccc3)c3c(c1OC)C=CC(C)(C)O3)OC(C)(C)C=C2` [Compound 12, (2Z,2’Z)-1,1’-(Methylenebis(7-hydroxy-5-methoxy-2,2-dimethyl-2H-chromene-6,8-diyl))bis(3-phenylprop-2-en-1-one)], the figures for the half-maximal inhibitory concentration (IC50) in test [1] and in test [2] were 3390 ± 130 nM and over 50 µM, respectively.

In the case of `CC1(C)C=Cc2c(O)c(Cc3c(O)c4c(c(C(=O)C=Cc5ccsc5)c3O)OC(C)(C)C=C4)c(O)c(C(=O)C=Cc3ccsc3)c2O1` (stereo in doubt) [Compound 4d, (2Z,2’Z)-1,1’-(Methylenebis(5,7-dihydroxy-2,2-dimethyl-2H-chromene-6,8-diyl))bis (3-(thiophen-3-yl)prop-2-en-1-one)], the IC50 in test [1] (setting [5]) is 220 ± 70 nM; in test [2], 23.59 ± 0.14 µM. For the same compound, in test [1], the “fold higher α-glucosidase inhibitory activity than 3” value was found to be 26 fold. Also, the “reversibility of α-glucosidase inhibition” value in test [3] was “irreversibly; also recorded: irreversible α-glucosidase inhibitors”.

In the case of `COc1c2c(c(C(=O)/C=C\c3ccccc3)c(O)c1Cc1c(OC)c3c(c(C(=O)/C=C\c4ccccc4)c1OC)OC(C)(C)C=C3)OC(C)(C)C=C2` [Compound 13, (Z)-1-(6-((5,7-Dimethoxy-2,2-dimethyl-8-((Z)-3-phenylacryloyl)-2H-chromen-6-yl)methyl)-7-hydroxy-5-methoxy-2,2-dimethyl-2H-chromen-8-yl)-3-phenylprop-2-en-1-one], the values for the half-inhibitory concentration (IC50) in test [1] and in test [2] were 370 ± 40 nM and over 50 µM, respectively. In test [1] (compared with compound 12), the “fold enhancement of α-glucosidase inhibitory activity compared to 12” value was found to be 10 fold.

Turning to `CC(C)=CCc1c(O)cc(O)c(C(=O)/C=C/c2ccc(O)cc2)c1O` [Compound 1, Desmethylxanthohumol, reference compound], the half-maximal inhibitory concentration (IC50) is 22400 ± 3100 nM in test [1] (setting [5]) and over 50 µM in test [2].

As for `CC1(C)C=Cc2c(O)c(Cc3c(O)c4c(c(C(=O)C=Cc5ccc(O)cc5)c3O)OC(C)(C)C=C4)c(O)c(C(=O)C=Cc3ccc(O)cc3)c2O1` (stereo in doubt) [Compound 5a, (2Z,2’Z)-1,1’-(Methylenebis(5,7-dihydroxy-2,2-dimethyl-2H-chromene-6,8-diyl))bis (3-(4-hydroxyphenyl)prop-2-en-1-one)], the values for the IC50 in test [1] and in test [2] were 510 ± 190 nM and over 50 µM, respectively. For the same compound, the “fold higher α-glucosidase inhibitory activity than 3” value in test [1] was determined as 10 fold.

`CC1(C)C=Cc2c(O)c(Cc3c(O)c4c(c(C(=O)C=Cc5ccccc5)c3O)OC(C)(C)C=C4)c(O)c(C(=O)C=Cc3ccccc3)c2O1` (stereo in doubt) [Compound 3, (2Z,2’Z)-1,1’-(Methylenebis(5,7-dihydroxy-2,2-dimethyl-2H-chromene-6,8-diyl))bis (3-phenylprop-2-en-1-one)]: the IC50 in test [1] (setting [5]) is 5910 ± 190 nM; in test [2] it was over 50 µM.

For the compound `CC1(C)C=Cc2c(O)c(Cc3c(O)c4c(c(C(=O)C=Cc5ccc(O)c(O)c5O)c3O)OC(C)(C)C=C4)c(O)c(C(=O)C=Cc3ccc(O)c(O)c3O)c2O1` (stereo in doubt) [Compound 5d, (2Z,2’Z)-1,1’-(Methylenebis(5,7-dihydroxy-2,2-dimethyl-2H-chromene-6,8-diyl))bis (3-(2,3,4-trihydroxyphenyl)prop-2-en-1-one)], the half-inhibitory concentration (IC50) in test [1] was 120 ± 20 nM; in test [2] it was 26.19 ± 0.22 µM. The “fold higher α-glucosidase inhibitory activity than 5a” value in test [1] is given as “four-fold”. In test [3] (Lineweaver-Burk plot, 0, 0.2, 0.5 μM), the “type of α-glucosidase inhibition” value is on record as “mixed competitive α-glucosidase inhibitor; also recorded: mixed competitive inhibitory mode”. Further, the “reversibility of α-glucosidase inhibition” value in test [3] is “irreversibly; also recorded: irreversible α-glucosidase inhibitors”. Further, the glucose consumption entry in test [4] (0.04 μM) is recorded as “significantly promote glucose consumption”; in test [4] (0.2 μM, metformin 1 mM positive control), “significantly promote glucose consumption; also recorded: comparable to that of metformin”.

As for “(2Z,2’Z)-1,1’-(Methylenebis(5,7-dihydroxy-2,2-dimethyl-2H-chromene-6,8-diyl))bis (3-(furan-3-yl)prop-2-en-1-one) [Compound 4c]”, the IC50 in test [1] (setting [5]) came out at 1840 ± 410 nM; in test [2], 21.48 ± 0.09 µM. Also, the “fold higher α-glucosidase inhibitory activity than 3” value in test [1] was “three-fold”.

For `CC1(C)C=Cc2c(O)c(Cc3c(O)c4c(c(C(=O)C=Cc5ccc(F)cc5)c3O)OC(C)(C)C=C4)c(O)c(C(=O)C=Cc3ccc(F)cc3)c2O1` (stereo in doubt) [Compound 4b, (2Z,2’Z)-1,1’-(Methylenebis(5,7-dihydroxy-2,2-dimethyl-2H-chromene-6,8-diyl))bis (3-(4-fluoro phenyl)prop-2-en-1-one)], the values for the IC50 in test [1] and in test [2] were 8710 ± 540 nM and over 50 µM, respectively.
